Assay results taken from patent EP0414688B1, “PROCESS FOR REGULATING THE ABSORPTION RATE OF DRUGS AND A PHARMACEUTICAL FORMULATION” (NEUVONEN, Pertti J., priority 1988, dated 1989).

Key:
[1] = cross-over study of oral absorption with concomitant magnesium hydroxide; assay type: in vivo, test persons
Experimental: In persons having a poor absorption of fenamates the increase of peak concentrations of e.g. tolfenamic acid can be up to 10-fold through the action of magnesium hydroxide (fig. 4).
Since medicines are generally taken with water, the administration of pharmaceutical tablets in the above tests was immediately followed by 150 ml of water with magnesium hydroxide blended therein.

[2] = Pentikainen et al., European Journal of Clinical Pharmacology 1984; cited from earlier work

Row | Structure (SMILES) | increase of peak concentrations through the action of magnesium hydroxide ([1]; human, in vivo) | absorption from alimentary canal [2] | rate of absorption ([1]; ibuprofen 400 mg (tabl. BURANA), concomitant ingestion of Mg-hydroxide)
1 | Cc1c(Cl)cccc1Nc1ccccc1C(=O)O [tolfenamic acid] | up to 10 fold | relatively slow | 
2 | CC(C)Cc1ccc(C(C)C(=O)O)cc1 (stereo not drawn) [ibuprofen] |  |  | accelerated significantly
